This series can be described thus: RP, Waters SunFire C18, 50 × 4.6 mm, 3.5 µm, 0.5 mL/min, estimated dead time 1.1 min; A: water + 0.1% formic acid; B: acetonitrile + 0.1% formic acid; gradient (min/%B) 0/5 7/100 8/100. The settings on record: stereoisomer not certain.
With `Cc1cc(O)c(C=O)c(O)c1`, the LC retention time was 4.33 min.
As to `CCCCCC(=O)Cc1cc(OC)cc(O)c1C(=O)Oc1cc(CCCCC)c(C(=O)O)c(OC)c1`, the LC retention time is 7.1 min.
Consider `COc1cc(C)c(C(=O)Oc2cc(C)c(C(=O)O)c(O)c2)c(O)c1C`, for which the LC retention time is 6.54 min.
As for `CC1C(=O)OC(CCCCCCCCCC(C)(C)C)C1C(=O)O` (stereo not drawn), the LC retention time was 8 min.
For `COC(=O)c1c(C)cc(OC(=O)c2c(C)cc(OC(=O)c3c(C)cc(OC)cc3O)cc2O)cc1O` the value was 7.74 min.
With `Cc1cc(O)cc2oc3cc(O)c4c(c3c12)COC4=O`, the LC retention time is 4.72 min.
For `CCOCc1c(O)c(C(=O)O)c(C)c2c1OC(=O)c1c(C)cc(O)c(C=O)c1O2`, the LC retention time is 7.27 min.
The result for `Cc1cc(O)c(C)c2c1C(=O)Oc1cc(O)c(C(=O)O)c(C)c1O2` reads 5.27 min; that for `CC(=O)OCC1OC(Oc2cc(O)c3c(=O)cc(C)oc3c2C)C(OC(C)=O)C(OC(C)=O)C1OC(C)=O` (stereo not drawn), 5.9 min.
For the compound `Cc1cc(O)c2c(=O)c3c(C)cc(O)cc3oc2c1`, the LC retention time is 6.34 min.
For `CC(C)CC(NC(=O)c1ccccc1)C(=O)OCC(Cc1ccccc1)NC(=O)c1ccccc1` (stereo not drawn) the value was 6.82 min.
The result for `CCCC(=O)Cc1cc(OC(=O)c2c(O)cc(OC)cc2CC(=O)CCC)cc(O)c1C(=O)O` reads 6.92 min.
The result for `O=C(NC(Cc1ccccc1)C(=O)O)C(=C1OC(=O)C(c2ccccc2)=C1O)c1ccccc1` (stereo not drawn) reads 7.27 min; that for `Cc1cc(O)c(C)c(O)c1`, 3.25 min.
With `Cc1cc(O)c2c(oc3cc(O)c(C(=O)O)c(C)c32)c1C(=O)O`, the LC retention time was 4.01 min.
On to `Cc1cc(O)c(C=O)c2c1C(=O)Oc1c(CO)c(O)c(C(=O)O)c(C)c1O2`, for which the LC retention time was 5.62 min.
For `OCC(O)C(O)CO` (stereo not drawn) the value was 4.05 min; for `CC(=O)OC1C(Oc2cc3oc(C)cc(=O)c3c(O)c2C)OC(CO)C(O)C1O` (stereo not drawn), 4 min.
The result for `CCCCCc1cc(OC(=O)c2c(O)cc(OC)cc2CC(=O)CCC)cc(O)c1C(=O)O` reads 7.28 min; that for `Cc1cc(O)cc(O)c1C(=O)O`, 3.41 min.
Consider `Cc1cc(O)c(C)c(O)c1C(=O)O`, for which the LC retention time was 3.99 min.
In the case of `CCCc1cc(O)cc(O)c1C(=O)O`, the LC retention time was 4.15 min.
In the case of `COC12CC(=O)C(C(C)=O)=C(O)C1(C)c1c(O)c(C)c(O)c(C(C)=O)c1O2` (stereo not drawn), the LC retention time was 7.08 min.
Take `CCCCCc1cc(OC(=O)c2c(O)cc(OC)cc2CCC(=O)CC)cc(O)c1C(=O)O`: the LC retention time is 7.31 min.
For the compound `COC(=O)c1c(C)cc(O)c(C)c1O`, the LC retention time was 5.37 min.
For `COC1=CC(=O)c2c(O)c3c(c(O)c2C1=O)CC(C)OC3=O` (stereo not drawn) the value was 4.41 min; for `COC(=O)c1c(C)c(C)c(OC(=O)c2c(C)c(C)c(O)c(C=O)c2O)c(C)c1O`, 7.84 min.
For `COc1cc(C)c(C(=O)Oc2cc(C)c(C(=O)O)c(O)c2C)c(OC)c1C` the value was 7.09 min; for `COC(=O)c1c(C)cc(O)c(C=O)c1O`, 5.48 min; for `COC(=O)C(Cc1ccccc1)NC(=O)C(=C1OC(=O)C(c2ccccc2)=C1O)c1ccccc1` (stereo not drawn), 7.65 min.
Consider `COc1cc(C)c2c(c1C)Oc1c(cc(O)c(C(=O)O)c1C)OC2=O`, for which the LC retention time is 6.23 min.
For `CCCCCc1cc(OC(=O)c2c(CCCCC)cc(O)cc2OC)cc(OC)c1C(=O)O` the value was 6.6 min; for `CCCCCCCCCCCCCC1OC(=O)C(C)C1C(=O)O` (stereo not drawn), 8 min.
On to `Cc1cc(OC(=O)c2c(C)cc(OC(=O)c3c(C)cc(O)cc3O)cc2O)cc(O)c1C(=O)O`, for which the LC retention time is 6.53 min.
As for `CCCCCC(=O)Cc1cc(O)cc(O)c1C(=O)Oc1cc(O)c(C(=O)O)c(CCCCC)c1`, the LC retention time was 6.74 min.
For `COc1cc(O)c2c(c1)C(=O)c1c(O)c(C)cc(O)c1C2=O` the value was 4.75 min; for `CC1CCCCCCCCCCC(O)C(O)C(O)C=CC(=O)O1` (stereo not drawn), 5.65 min; for `Cc1cc(O)c2c(oc3cc(O)c4c(c32)COC4=O)c1C(=O)O`, 3.95 min.
`CCCCCC(=O)Cc1c(Oc2cc(OC)cc3cc(CCCCC)oc(=O)c23)c(O)cc(O)c1C(=O)O`: the LC retention time was 7.09 min.
`Cc1cc(OC(=O)c2c(C)cc(O)cc2O)cc(O)c1C(=O)O`: the LC retention time is 5.3 min.
In the case of `Cc1cc(O)c2c(c1)oc1cc(O)cc(C)c12`, the LC retention time was 7.4 min.
Consider `CC1OC2(C(C)C(O)C1C)C(C)C1OC(=O)C2(C)C(=O)C1C` (stereo not drawn), for which the LC retention time was 5.25 min.
For `COc1cc(O)c2c(c1)C(=O)c1cc(CO)cc(O)c1C2=O` the value was 5.36 min.
On to `CCCCCc1cc(OC)cc(O)c1C(=O)O`, for which the LC retention time was 6.19 min.
Regarding `O=C(O)c1cc(O)c2c(c1)C(=O)c1cc(O)cc(O)c1C2=O`, the LC retention time is 5.06 min.
On to `COc1cc(C)c(C(=O)O)c(O)c1C`, for which the LC retention time is 5.09 min.
For `CC(C)CC(NC(=O)C(=C1OC(=O)C(c2ccccc2)=C1O)c1ccccc1)C(=O)O` (stereo not drawn) the value was 7.26 min; for `CC(=O)OCC1OC(Oc2c(C)c(O)c3c(=O)cc(C)oc3c2C)C(O)C(O)C1O` (stereo not drawn), 4.2 min; for `CC(=O)OC(C)CC1CC(OC(C)=O)C(C)C(O)C(C)C(=O)OC(CC(C)OC(C)=O)CC(OC(C)=O)C(C)C(O)C(C)C(=O)O1` (stereo not drawn), 6.35 min.
For `Cc1cc(O)c2c(c1)C(=O)c1c(c(O)cc(O)c1-c1c(O)cc(O)c3c1C(=O)c1cc(C)cc(O)c1C3=O)C2=O` the value was 6.57 min; for `CC(=O)c1c(O)cc(O)cc1O`, 3.77 min; for `CC(=O)OCC1OC(Oc2cc(O)c3c(=O)cc(C)oc3c2C)C(OC(C)=O)C(OC(C)=O)C1O` (stereo not drawn), 5.4 min.
`Cc1cc(=O)c2c(O)c(C)c(O)cc2o1`: the LC retention time is 4.52 min.
For `Cc1cc(O)c(C=O)c(O)c1C(=O)OCc1cc(O)c(C=O)c(O)c1C(=O)O`, the LC retention time is 7.26 min.
For `Cc1cc(O)c(C=O)c2c1C(=O)Oc1c(COC(=O)C=CC(=O)O)c(O)c(C(=O)O)c(C)c1O2` the value was 6.04 min; for `CC(=O)CCCCCCCCCCCCCC1OC(=O)C(C)=C1C(=O)O` (stereo not drawn), 6.9 min; for `Cc1cc(=O)c2c(O)c3c(cc2o1)C(=O)C(=O)C=C3O`, 3.87 min.
Consider `CCC(C)C(NC(=O)c1ccccc1)C(=O)NC(COC(=O)c1ccccc1)C(C)C` (stereo not drawn), for which the LC retention time is 6.25 min.
Take `COc1cc(OC(=O)c2c(C)cc(O)cc2O)cc(C)c1C(=O)Oc1cc(C)c(C(=O)O)c(O)c1`: the LC retention time was 6.2 min.
For `COC(=O)C(=C1OC(=O)C(c2ccc(OC)cc2)=C1O)c1ccccc1` the value was 6.71 min.
The result for `O=C1c2oc3cc(O)c(O)cc3c2C(=O)c2oc3cc(O)c(O)cc3c21` reads 4.52 min; that for `COc1cc(C)c(C)c(OC(=O)c2c(C)c(C=O)c(O)c(C=O)c2O)c1C`, 6.73 min.
For `C=C1C(=O)OC(CCCCCCCCCCCCCC(C)O)C1C(=O)O` (stereo not drawn) the value was 6.53 min; for `Cc1cc(O)c2c(c1)C(=O)c1c(c(O)cc(O)c1-c1c(C)cc(O)c3c1C(=O)c1cc(O)cc(O)c1C3=O)C2=O`, 6.58 min.
For `COc1cc(C)c(C(=O)Oc2c(C)cc(O)c(C=O)c2O)c(O)c1C(=O)O`, the LC retention time was 5.7 min.
`COc1cc(C)c(C(=O)Oc2cc(C)c(C(=O)O)c(O)c2)c(O)c1`: the LC retention time is 6 min.
The result for `Cc1cc(O)c(C)c2c1C(=O)Oc1c(C)c(O)c(C(=O)O)c(C)c1O2` reads 5.63 min.
With `COc1cc(O)c2c(c1)C(=O)c1cc(C(=O)O)cc(O)c1C2=O`, the LC retention time is 5.72 min.
For `COC1=CC(=O)c2c(OC(C)=O)c3c(c(O)c2C1=O)CC(C)OC3=O` (stereo not drawn) the value was 6.99 min; for `CC(=O)C1=C(O)C=C2Oc3c(C)c(O)c(C(C)=O)c(O)c3C2(C)C1=O` (stereo not drawn), 7.45 min.
Consider `COC1=CC(=O)c2c(O)c3c(c(O)c2C1=O)C(O)C(C)OC3=O` (stereo not drawn), for which the LC retention time is 4.23 min.
Take `CCCCCc1c(C(=O)O)c(O)cc2oc3cc(OC)cc(CCC)c3c12`: the LC retention time was 7.09 min.
With `COC(=O)c1c(C)cc(OC(=O)c2c(C)cc(O)c(C=O)c2O)c(C)c1O`, the LC retention time is 7.14 min.
As to `CCCCCCCCCCCCCCC(C(=O)O)C(CC(=O)O)C(=O)O` (stereo not drawn), the LC retention time was 7.46 min.
The result for `CCCCCCCCCCCCCCC(C(=O)OC)C(CC(=O)O)C(=O)O` (stereo not drawn) reads 8 min.
Regarding `COCc1c(O)c(C(=O)O)c(C)c2c1OC(=O)c1c(C)cc(O)c(C=O)c1O2`, the LC retention time was 5.99 min.
The result for `COc1cc(C)c2c(c1C=O)Oc1c(c(CO)c(O)c3c1C(O)OC3=O)OC2=O` (stereo not drawn) reads 4.06 min; that for `CCCCCc1cc(OC)c(O)c2c1C(=O)Oc1cc(O)c(C(=O)O)c(CCCCC)c1O2`, 7.36 min; that for `Cc1cc(O)cc2c1C(=O)Oc1cc3c(c(O)c1O2)C(=O)OC3`, 4.58 min.
Regarding `CC(=O)OCC1OC(Oc2cc3oc(C)cc(=O)c3c(O)c2C)C(OC(C)=O)C(O)C1O` (stereo not drawn), the LC retention time is 4.69 min.
As to `Cc1cc(O)cc(O)c1C(=O)Oc1cc(C)c(C(=O)Oc2c(O)cc(O)c(C(=O)O)c2C)c(O)c1`, the LC retention time was 5.63 min.
For `CC(=O)C1=C(O)C=C2Oc3c(C(C)=O)c(O)c(C)c(O)c3C2(C)C1=O` (stereo not drawn) the value was 7.27 min; for `COc1cc(C)c(C(=O)Oc2c(C)c(C(=O)O)c(O)c(C=O)c2O)c(O)c1C(=O)O`, 5.8 min.

The record behind these values is the RepoRT retention time repository (doi:10.1038/s41597-019-0305-1).
